Test results from patent publication US7897602B2, “Indolinone compounds as kinase inhibitors” (Development Center for Biotechnology, priority 2009, dated 2011).

Key:
COLO 205 tumor cells = test: In vivo anti-cancer activity, COLO 205 subcutaneous tumor model; settings: COLO 205 s.c. tumors in NOD/SCID mice; i.v. 5, 10 or 20 mg/kg qd × 14
Method: (§1) COLO 205 (1×10^6 cell/mouse) tumor cells were subcutaneously injected into the right flank of 5 week old male NOD/SCID mice (BioLASCO, Taiwan). Tumor volume was measured with a digital caliper once tumor was palpable (within 10 to 15 days after implantation). Compound treatment was started after 1-3 weeks when the tumors had reached an average volume of ˜50 to 100 mm^3. Mice were divided into 5 groups as listed in Table 4 below and were given intravenous injections with test compound at different dosage (5 mg/kg, 10 mg/kg, or 20 mg/kg), SU11248 (20 mg/kg, positive control), or vehicle control (DMSO:Cremophor:PBS (pH 7.4)=[…]) one time every day. The test compound, DCB-70055, was formulated in a solution of 5% DMSO, 10% Cremophor, and 85% PBS. The positive control, SU11248, was dissolved in 100% PBS. Body weights of the mice were measured every two to three days and the tumor sizes in different groups of mice were measured by digital caliper every two to three days.

PDGFR-β kinase = molecular target: T1, PDGFR-β kinase (Homo sapiens, UniProt P09619); test: PDGFR-β kinase assay (33P incorporation into Poly(Glu-Tyr)); assay type: biochemical; settings: 500 nM test compound
T1 construct: recombinant N-terminal 6×His-tagged PDGFR-β kinase domain construct expressed by baculovirus; 6xHis (N); made in house
Procedure, shortened: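 His-tagged PDGFR-β kinase domain (55 ng) with Poly(Glu-Tyr) 4:1, 30 μM ATP plus [33P]-γ-ATP, pH 7.0 MnCl2 buffer, and 500 nM compound for 30 min at 30° C. Filter-bound radioactivity counted; inhibition computed relative to DMSO control.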

Aurora A kinase = molecular target: T2, Aurora A kinase (Homo sapiens, UniProt O14965); test: Aurora A kinase assay ([γ-33P]ATP, CHOCKtide substrate); assay type: biochemical; settings: for inhibition at 1 µM: 1.0 μM test compound
T2 construct: purchased Upstate
T2 sequence (O14965 1-403): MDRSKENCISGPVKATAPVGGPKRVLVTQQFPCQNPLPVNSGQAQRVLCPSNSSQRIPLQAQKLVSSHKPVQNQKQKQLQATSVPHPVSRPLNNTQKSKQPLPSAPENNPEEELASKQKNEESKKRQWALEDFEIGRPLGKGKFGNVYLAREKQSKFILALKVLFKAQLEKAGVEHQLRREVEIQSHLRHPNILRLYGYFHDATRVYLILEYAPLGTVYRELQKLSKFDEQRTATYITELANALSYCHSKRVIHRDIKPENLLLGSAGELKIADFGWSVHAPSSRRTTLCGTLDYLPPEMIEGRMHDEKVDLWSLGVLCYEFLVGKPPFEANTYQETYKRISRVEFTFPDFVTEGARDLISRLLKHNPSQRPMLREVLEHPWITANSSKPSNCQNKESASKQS
Procedure, shortened: (§2)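 Recombinant Aurora A (1 ng) or Aurora B (2.5 ng) incubated with test compound, CHOCKtide (1 μg) and [γ-33P]ATP/ATP at 10 μM (Aurora A) or 40 μM (Aurora B), 30 min at 33 °C. Stopped with phosphoric acid; filter-bound 33P counted; IC50 = half-maximal inhibition.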

[1] = Body weight of mice in the COLO 205 tumor study; assay type: in vivo; settings: NOD/SCID mice with COLO 205 tumors; i.v. 5, 10 or 20 mg/kg qd × 14
Method: as §1

Aurora B kinase = molecular target: T3, Aurora B kinase (Homo sapiens, UniProt Q96GD4); test: Aurora B kinase assay ([γ-33P]ATP, CHOCKtide substrate); assay type: biochemical; settings: for inhibition at 1 µM: 1.0 μM test compound
T3 construct: purchased Cell signaling
Procedure, shortened: as §2

T3 sequence (Q96GD4 whole entry): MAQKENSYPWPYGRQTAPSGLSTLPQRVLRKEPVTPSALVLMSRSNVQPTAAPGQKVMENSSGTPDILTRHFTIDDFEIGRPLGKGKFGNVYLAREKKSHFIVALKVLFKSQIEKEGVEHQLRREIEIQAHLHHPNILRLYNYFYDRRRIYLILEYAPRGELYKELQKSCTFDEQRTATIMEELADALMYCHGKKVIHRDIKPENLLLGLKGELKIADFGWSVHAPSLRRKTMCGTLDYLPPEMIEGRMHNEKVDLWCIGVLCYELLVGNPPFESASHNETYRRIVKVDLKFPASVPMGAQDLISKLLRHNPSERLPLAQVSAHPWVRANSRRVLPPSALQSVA
T1 sequence (P09619 600-962 limits assumed): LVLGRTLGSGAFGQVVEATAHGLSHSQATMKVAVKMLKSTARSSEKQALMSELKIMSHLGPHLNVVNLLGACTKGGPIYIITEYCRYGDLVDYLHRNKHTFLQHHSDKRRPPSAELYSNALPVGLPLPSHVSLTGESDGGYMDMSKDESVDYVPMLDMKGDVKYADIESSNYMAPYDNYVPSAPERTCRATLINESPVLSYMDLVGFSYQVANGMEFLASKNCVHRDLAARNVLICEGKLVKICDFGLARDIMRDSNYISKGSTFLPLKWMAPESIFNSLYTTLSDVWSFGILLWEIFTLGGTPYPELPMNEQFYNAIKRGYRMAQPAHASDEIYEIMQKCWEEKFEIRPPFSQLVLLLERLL

Row | inhibition at 0.5 µM (PDGFR-β kinase) | IC50 (Aurora A kinase) | inhibition at 1 µM (Aurora A kinase) | inhibition at 1 µM (Aurora B kinase) | IC50 (Aurora B kinase) | SMILES | tumor growth in vivo (COLO 205 tumor cells) | weight loss (body weight) [1]
1 | 83.5% | 178 nM | 79.8% | 11.6% | – | O=C(O)CCc1c(/C=C2\C(=O)Nc3ccc(F)cc32)[nH]c2c1C(=O)CCC2 [DCB-70055, (Z)-5-fluoro-3-((3-carboxyethyl-4-oxo-4,5,6,7-tetrahydro-1H-indol-2-yl)methylene)indolin-2-one] | inhibited tumor growth in vivo | without inducing significant weight loss
2 | 78.2% | – | 39.7% | -0.1% | – | O=C1Nc2ccc(F)cc2/C1=C/c1[nH]c2c(c1CCC(=O)N1CCOCC1)C(=O)CCC2 [DCB-70125, (Z)-5-fluoro-3-((3-(3-morpholino-3-oxopropyl)-4-oxo-4,5,6,7-tetrahydro-1H-indol-2-yl)methylene)indolin-2-one] | – | –
3 | 9% | – | 5.1% | 13.5% | – | CCOC(=O)CCc1c(/C=C2\C(=O)Nc3cc(-c4ccc5c(c4)OCO5)ccc32)[nH]c2c1C(=O)CCC2 [DCB-70128, (Z)-ethyl 3-(2-((6-(benzo[d][1,3]dioxol-5-yl)-2-oxoindolin-3-ylidene)methyl)-4-oxo-4,5,6,7-tetrahydro-1H-indol-3-yl)propanoate] | – | –
4 | 1.4% | – | 15.6% | 5.8% | – | CCOC(=O)CCc1c(/C=C2\C(=O)Nc3ccc(NC(=O)Nc4cccc5ccccc45)cc32)[nH]c2c1C(=O)CCC2 [DCB-70129, (Z)-ethyl 3-(2-((5-(3-naphthalen-1-ylureido)-2-oxoindolin-3-ylidene)methyl)-4-oxo-4,5,6,7-tetrahydro-1H-indol-3-yl)propanoate] | – | –
5 | 84.9% | – | 22.7% | 12.2% | – | CCOC(=O)CCc1c(/C=C2\C(=O)Nc3cc(Br)ccc32)[nH]c2c1C(=O)CCC2 [DCB-70130, (Z)-ethyl 3-(2-((6-bromo-2-oxoindolin-3-ylidene)methyl)-4-oxo-4,5,6,7-tetrahydro-1H-indol-3-yl)propanoate] | – | –
6 | 40.8% | – | 70.7% | 44.5% | – | CCOC(=O)CCc1c(/C=C2\C(=O)Nc3ccc(NCc4ccccc4)cc32)[nH]c2c1C(=O)CCC2 [DCB-70131, (Z)-ethyl 3-(2-((5-(benzylamino)-2-oxoindolin-3-ylidene)methyl)-4-oxo-4,5,6,7-tetrahydro-1H-indol-3-yl)propanoate] | – | –
7 | 29.3% | – | 33.4% | 26.9% | – | O=C(O)CCc1c(/C=C2\C(=O)Nc3ccc(NCc4ccccc4)cc32)[nH]c2c1C(=O)CCC2 [DCB-70132, (Z)-3-(2-((5-(benzylamino)-2-oxoindolin-3-ylidene)methyl)-4-oxo-4,5,6,7-tetrahydro-1H-indol-3-yl)propanoic acid] | – | –
8 | 8.3% | – | 2.6% | 6% | – | O=C(O)CCc1c(/C=C2\C(=O)Nc3cc(Br)ccc32)[nH]c2c1C(=O)CCC2 [DCB-70133, (Z)-3-(2-((6-bromo-2-oxoindolin-3-ylidene)methyl)-4-oxo-4,5,6,7-tetrahydro-1H-indol-3-yl)propanoic acid] | – | –
9 | 24% | – | 16.4% | 5.7% | – | CCOC(=O)CCc1c(/C=C2\C(=O)Nc3ccc(NC(=O)Nc4ccccc4)cc32)[nH]c2c1C(=O)CCC2 [DCB-70134, (Z)-ethyl 3-(4-oxo-2-((2-oxo-5-(3-phenylureido)indolin-3-ylidene)methyl)-4,5,6,7-tetrahydro-1H-indol-3-yl)propanoate] | – | –
10 | 12% | – | 7.4% | -6.6% | – | CCOC(=O)CCc1c(/C=C2\C(=O)Nc3ccc(NC(=O)Nc4ccc(Br)cc4)cc32)[nH]c2c1C(=O)CCC2 [DCB-70135, (Z)-ethyl 3-(2-((5-(3-(4-bromophenyl)ureido)-2-oxoindolin-3-ylidene)methyl)-4-oxo-4,5,6,7-tetrahydro-1H-indol-3-yl)propanoate] | – | –
11 | 21.4% | – | 26.4% | 0.1% | – | CCOC(=O)CCc1c(/C=C2\C(=O)Nc3ccc(NC(=O)Nc4ccc(F)cc4)cc32)[nH]c2c1C(=O)CCC2 [DCB-70136, (Z)-ethyl 3-(2-((5-(3-(4-fluorophenyl)ureido)-2-oxoindolin-3-ylidene)methyl)-4-oxo-4,5,6,7-tetrahydro-1H-indol-3-yl)propanoate] | – | –
12 | 11.5% | – | 12.6% | -3.3% | – | CCOC(=O)CCc1c(/C=C2\C(=O)Nc3ccc(NC(=O)Nc4ccc(Cl)c(C(F)(F)F)c4)cc32)[nH]c2c1C(=O)CCC2 [DCB-70137, (Z)-ethyl 3-(2-((5-(3-(4-chloro-3-(trifluoromethyl)phenyl)ureido)-2-oxoindolin-3-ylidene)methyl)-4-oxo-4,5,6,7-tetrahydro-1H-indol-3-yl)propanoate] | – | –
13 | 7.5% | – | 31.1% | 5.2% | – | CCOC(=O)CCc1c(/C=C2\C(=O)Nc3ccc(NC(=O)c4ccc([N+](=O)[O-])cc4)cc32)[nH]c2c1C(=O)CCC2 [DCB-70140, (Z)-ethyl 3-(2-((5-(4-nitrobenzamido)-2-oxoindolin-3-ylidene)methyl)-4-oxo-4,5,6,7-tetrahydro-1H-indol-3-yl)propanoate] | – | –
14 | 2.4% | 270 nM | 82% | 61.9% | 448 nM | CCOC(=O)CCc1c(/C=C2\C(=O)Nc3ccc(NS(=O)(=O)c4ccc(F)cc4)cc32)[nH]c2c1C(=O)CCC2 [DCB-70144, (Z)-ethyl 3-(2-((5-(4-fluorophenylsulfonamido)-2-oxoindolin-3-ylidene)methyl)-4-oxo-4,5,6,7-tetrahydro-1H-indol-3-yl)propanoate] | – | –
15 | 14.5% | 45.7 nM | 90.3% | 75.2% | 449 nM | O=C(O)CCc1c(/C=C2\C(=O)Nc3ccc(NS(=O)(=O)c4ccc(F)cc4)cc32)[nH]c2c1C(=O)CCC2 [DCB-70145, (Z)-3-(2-((5-(4-fluorophenylsulfonamido)-2-oxoindolin-3-ylidene)methyl)-4-oxo-4,5,6,7-tetrahydro-1H-indol-3-yl)propanoic acid] | – | –
16 | 19.7% | 86.3 nM | 81.3% | 75.1% | 439 nM | CCOC(=O)CCc1c(/C=C2\C(=O)Nc3ccc(NS(=O)(=O)c4ccccc4)cc32)[nH]c2c1C(=O)CCCC2 [DCB-70146, (Z)-ethyl 3-(4-oxo-2-((2-oxo-5-(phenylsulfonamido)indolin-3-ylidene)methyl)-1,4,5,6,7,8-hexahydrocyclohepta[b]pyrrol-3-yl)propanoate] | – | –
17 | 17.3% | 68.4 nM | 91.9% | 61.3% | – | O=C(O)CCc1c(/C=C2\C(=O)Nc3ccc(NS(=O)(=O)c4ccccc4)cc32)[nH]c2c1C(=O)CCCC2 [DCB-70147, (Z)-3-(4-oxo-2-((2-oxo-5-(phenylsulfonamido)indolin-3-ylidene)methyl)-1,4,5,6,7,8-hexahydrocyclohepta[b]pyrrol-3-yl)propanoic acid] | – | –
